Laboratory results reported in patent US10543193B2, “Processes useful for the preparation of 1-[3-(4-bromo-2-methyl-2H-pyrazol-3-yl)-4-methoxy-phenyl]-3-(2,4-difluoro-phenyl)-urea and crystalline forms related thereto” (ARENA PHARMACEUTICALS, INC., priority 2008, dated 2020).
“Also recorded” adds a separate entry of the source.

Legend:
[1] = Effect of milling and compression upon APD125 Form I (PXRD); assay type: physicochemical
Procedure: Micronized APD125 Form I, was ground using a mortar and pestle, with samples withdrawn at 1-min, 5-min and 10-min time points for PXRD analyses to evaluate the impact of grinding upon the solid-state form of APD125 Form I. PXRD patterns were obtained pre- and post-milling. Additionally, micronized APD125 Form I, was compressed at 2 kp, 5 kp and 10 kp for 1 min per sample using a Carver press. The samples were then removed from the Carver press and lightly broken up using a mortar and pestle, prior to PXRD analysis to evaluate the impact of compression upon the solid-state form of APD125 Form I. PXRD patterns were obtained pre- and post-compression.
(§1) PXRD measurements were obtained using a Philips (PANalytical) X'Pert PRO theta/theta diffractometer (EQ 0233) equipped with an X'Celerator RTMS detector and utilizing copper Kα radiation, operating at 45 kV and 40 mA. The instrument radius was 239.5 mm, the mask filter was 20 mm, the soller slit was 0.04 radians, and a nickel filter and sample spinning were used during data acquisition. The application and instrument control software used were X'Pert Data Collector®, version 2.0c and XPERT-PRO®, version 1.6, respectively. The samples were scanned from 5° to 40°2θ in continuous mode, using a step size of 0.0167°2θ.

[2] = Methyl cellulose optimization: Form I to Form II conversion in water pastes (PXRD); assay type: physicochemical
Procedure: In a small scintillation vial, 152.13 mg of micronized APD125 Form I, was spiked with sufficient deionized water to make a paste; the weight of the water added, 844.60 mg, was recorded, and the resulting mixture was stirred using a spatula to obtain a paste. The resulting sample, post-collection of an initial PXRD pattern, was capped, wrapped in tinfoil and stored at 40° C. until the next day, when a second PXRD pattern was obtained.
Using another small scintillation vial, 2.1183 g of micronized APD125 Form I, was mixed with 3.3619 g of a 0.5% w/v methyl cellulose to obtain a paste, which was immediately sampled for PXRD analysis to verify starting APD125 solid-state form, post-methyl cellulose addition. The remaining sample in the scintillation vial was split into two portions, placed in capped, parafilm-wrapped scintillation vials, which were then wrapped in tinfoil and stored at 40° C. and room temperature, respectively. PXRD patterns were collected at initial (t=0), 2-day and 16-day time points for each sample.
APD125 micronized Form I/PVP (1:8) blend, weighing 3.0081 g and containing 0.5% w/w methyl cellulose, was mixed with 3.71277 g of water to form a paste. After sampling the paste for an initial PXRD pattern, the remaining paste was split into two portions, placed in capped, parafilm-wrapped scintillation vials, which were then wrapped in tinfoil and stored at 40° C. and room temperature, respectively. PXRD patterns were collected at initial (t=0), 1-day, 7-day and 21-day time points.
For each blend, materials were dispensed (minus magnesium stearate) into a glass vial and blended for about 5 minutes. Magnesium stearate was added and the mixture was blended an additional 2 minutes. The final blend was compacted into standard round concave tablets ( 5/16″ diameter) with a total tablet weight of 200 mg and hardness of 10 kp using a Carver press. For each batch of tablets, several were crushed using a mortar and pestle to obtain a fine powder, from which a small sample was taken for PXRD analysis to confirm the initial APD125 polymorphic form. The remaining powder was weighed into a Qorpak® bottle, and ca. 50% w/w deionized water was added. The resulting mixture was stirred using a micro-spatula to wet the powder and form a paste. A Teflon® lid was screwed on tightly, and the prepared samples were stored in a 40° C. oven.
as §1, with “respectively. The API-based paste samples were” for “respectively. The samples were”, “size of 0.0167°2θ and a counting time of 40.005 seconds. The tablet granulation samples were scanned from 2° to 15°2θ in continuous mode, using a step size of 0.0167°2θ and a counting time of 1063.625 s.” for “size of 0.0167°2θ.”

insomnia patients = assay: Phase 2 trial: sleep maintenance; assay type: in vivo, humans
Source text: The data from the APD125 Phase 2 study are consistent with Phase 1 data and support further development of APD125 for the treatment of insomnia patients who have difficulty maintaining sleep.

Healthy Adults = assay: Phase 1 trials: waking EEG; assay type: in vivo, humans
normal volunteers = assay: Afternoon nap model of insomnia in normal volunteers; assay type: in vivo, humans
Source text: Sleep onset latency was not decreased by APD125. In the afternoon nap model, APD125 decreased microarousals, the number of sleep stage shifts and number of awakenings after sleep onset.

Row | Compound | PXRD pattern after compression ([1]; compressed at 2 kp, 5 kp and 10 kp vs uncompressed) | PXRD pattern after grinding ([1]; mortar and pestle, 1 minute, 5 minutes and 10 minutes, listed as micronized APD125 Form I) | conversion to Form II (PXRD) ([2]; aqueous 0.5% w/w methyl cellulose, 40° C., after 16 days) | PXRD pattern (FIG. 8 legend) ([2]; aqueous 0.5% w/w methyl cellulose, room temperature and 40° C., after 16 days) | time to conversion to Form II (PXRD) ([2]; paste in water alone at 40° C.) | PXRD pattern (FIG. 9 legend) ([2]; paste in water alone at room temperature and 40° C. after 24 h) | conversion to Form II (PXRD) ([2]; suspended in aqueous 0.5% w/w methyl cellulose, room temperature, 21 days) | next day cognitive effects (insomnia patients) | measurements of sleep maintenance (insomnia patients; compared to placebo) | dose with maximal effects on waking EEG (Healthy Adults) | effects on waking EEG (Healthy Adults) | time of peak effects on waking EEG after dosing (Healthy Adults) | Sleep onset latency (normal volunteers) | microarousals, number of sleep stage shifts and number of awakenings after sleep onset (normal volunteers) | slow wave sleep and associated parameters (normal volunteers; primarily during the early part of sleep)
1 | COc1ccc(NC(=O)Nc2ccc(F)cc2F)cc1-c1c(Br)cnn1C [APD125 Form I, 1-[3-(4-bromo-2-methyl-2H-pyrazol-3-yl)-4-methoxy-phenyl]-3-(2,4-difluoro-phenyl)-urea] | consistent with APD125 Form I; also recorded: all substantially comprise Form I | No significant changes in the PXRD patterns; also recorded: all substantially comprise Form I | no evidence of conversion to Form II | substantially converted to Form II | ≤ 24 h | substantially converted to Form II | did not convert to Form II | – | – | – | – | – | – | – | –
2 | COc1ccc(NC(=O)Nc2ccc(F)cc2F)cc1-c1c(Br)cnn1C [Compound I, 1-[3-(4-bromo-2-methyl-2H-pyrazol-3-yl)-4-methoxy-phenyl]-3-(2,4-difluoro-phenyl)-urea] | – | – | – | – | – | – | – | without any limiting next day cognitive effects | statistically significant improvements | 40 to 80 mg | vigilance-lowering effects | 2 to 4 h | not decreased | decreased | increased slow wave sleep and associated parameters in a dose-dependent manner
